Source: patent US20230374038A1, “MODULATORS OF CYSTIC FIBROSIS TRANSMEMBRANE CONDUCTANCE REGULATOR” (VERTEX PHARMACEUTICALS INCORPORATED, priority 2020, published 2023)
Where two headings read alike, the source gives them in different places.

Experiments:
[1] = target: CFTR (Homo sapiens, UniProt P13569); assay: Membrane Potential Dye, Enteroid Assay B; assay type: cell-based
Summary of the method: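 Human intestinal enteroids seeded at 5000 cells/well, treated with compound 18-24 h at 37 °C, then loaded 25 min with methyl oxonol membrane-potential dye plus CaCC blockers. Chloride transport started in chloride-free buffer with 10 μM forskolin, 100 μM IBMX and 300 nM Compound III, read 15 min; expressed as % of triple-combination control.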

Chain of CFTR (P13569 with tags, fused parts or gaps DEL508-508): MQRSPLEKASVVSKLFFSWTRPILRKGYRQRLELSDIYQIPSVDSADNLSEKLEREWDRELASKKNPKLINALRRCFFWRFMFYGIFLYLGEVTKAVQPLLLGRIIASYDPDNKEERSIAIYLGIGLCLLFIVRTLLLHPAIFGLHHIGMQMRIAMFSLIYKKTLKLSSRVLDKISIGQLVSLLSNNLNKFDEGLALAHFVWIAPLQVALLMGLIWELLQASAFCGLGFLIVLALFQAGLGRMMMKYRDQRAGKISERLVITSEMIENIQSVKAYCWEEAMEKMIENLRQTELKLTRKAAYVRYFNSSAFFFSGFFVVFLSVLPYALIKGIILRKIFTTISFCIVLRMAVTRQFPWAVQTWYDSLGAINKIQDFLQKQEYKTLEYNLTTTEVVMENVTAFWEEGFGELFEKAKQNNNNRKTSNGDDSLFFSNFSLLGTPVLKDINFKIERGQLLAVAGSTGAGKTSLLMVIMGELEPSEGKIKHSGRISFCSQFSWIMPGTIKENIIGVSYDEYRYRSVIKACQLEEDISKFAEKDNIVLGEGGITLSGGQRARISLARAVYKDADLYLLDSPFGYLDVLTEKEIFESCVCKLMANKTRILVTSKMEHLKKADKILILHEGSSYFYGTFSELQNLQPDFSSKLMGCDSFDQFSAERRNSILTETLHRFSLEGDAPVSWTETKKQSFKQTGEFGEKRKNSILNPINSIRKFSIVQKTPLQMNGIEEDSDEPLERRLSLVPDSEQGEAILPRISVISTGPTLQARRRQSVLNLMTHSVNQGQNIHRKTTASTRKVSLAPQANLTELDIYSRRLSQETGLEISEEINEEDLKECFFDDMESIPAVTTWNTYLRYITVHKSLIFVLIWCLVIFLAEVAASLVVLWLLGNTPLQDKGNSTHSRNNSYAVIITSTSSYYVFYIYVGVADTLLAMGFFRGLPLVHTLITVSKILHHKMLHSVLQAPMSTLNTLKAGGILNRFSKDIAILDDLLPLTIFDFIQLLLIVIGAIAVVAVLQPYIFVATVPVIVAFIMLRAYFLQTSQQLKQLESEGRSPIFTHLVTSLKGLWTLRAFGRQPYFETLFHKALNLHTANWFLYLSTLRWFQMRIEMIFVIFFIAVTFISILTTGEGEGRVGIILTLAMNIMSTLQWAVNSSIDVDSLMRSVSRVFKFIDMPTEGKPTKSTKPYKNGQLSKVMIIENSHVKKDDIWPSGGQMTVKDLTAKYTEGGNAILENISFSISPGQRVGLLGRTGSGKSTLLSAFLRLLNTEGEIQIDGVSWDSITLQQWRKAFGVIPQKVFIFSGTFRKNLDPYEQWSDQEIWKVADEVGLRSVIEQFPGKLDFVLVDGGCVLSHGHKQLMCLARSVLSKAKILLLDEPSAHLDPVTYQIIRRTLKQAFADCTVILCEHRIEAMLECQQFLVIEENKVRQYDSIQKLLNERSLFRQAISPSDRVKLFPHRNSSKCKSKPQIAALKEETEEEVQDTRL

Question: Which ring closure, isolated yield (from CCc1c(Cl)nc(NS(=O)(=O)c2cccc(N)c2)nc1Oc1cccc(C(=O)O)c1, amide bond, 14-membered ring, HATU/DIEA, DMF, 53.0 mM, 0.33 h, 2 steps) does the source give for `CCc1c(Cl)nc2nc1Oc1cccc(c1)C(=O)Nc1cccc(c1)S(=O)(=O)N2` here?
Answer: 19%

Question: What about the ring closure, isolated yield (from CCc1c(Cl)nc(NS(=O)(=O)c2cccc(N)c2)nc1Oc1cccc(C(=O)O)c1, amide bond, 14-membered ring, HATU/DIEA, DMF, 50.0 °C, 2.5 h, 4 steps) of the same compound?
Answer: 8%

Question: For `Cc1cccc(C)c1-c1nc2nc(c1C)OC[C@@H](CC(C)C)N(C1CC3(CCN(C(=O)OC(C)(C)C)CC3)C1)C(=O)c1cccc(c1)S(=O)(=O)N2`, which ring closure, isolated yield (from Cc1cccc(C)c1-c1nc(NS(=O)(=O)c2cccc(C(=O)O)c2)nc(OC[C@@H](CC(C)C)NC2CC3(CCN(C(=O)OC(C)(C)C)CC3)C2)c1C, amide bond, 13-membered ring, HATU/DIEA, DMF, 9.1 mM, 3.0 h, 2 steps) is on record?
Answer: 46%

Question: For `Cc1cccc(C)c1-c1nc2nc(c1C)OC[C@@H](CCC(C)(C)O)N(C1CC3(CC3)C1)C(=O)c1cccc(c1)S(=O)(=O)N2` [Compound 106, (11R)-6-(2,6-dimethylphenyl)-11-(3-hydroxy-3-methyl-butyl)-7-methyl-2,2-dioxo-12-spiro[2.3]hexan-5-yl-9-oxa-2λ^6-thia-3,5,12,19-tetrazatricyclo[12.3.1.14,8]nonadeca-1(18),4(19),5,7,14,16-hexaen-13-one], which ring closure, isolated yield (from Cc1cccc(C)c1-c1nc(NS(=O)(=O)c2cccc(C(=O)O)c2)nc(OC[C@@H](CCC(C)(C)O)NC2CC3(CC3)C2)c1C, amide bond, 13-membered ring, T3P/TEA, DMF/EtOAc, 51.6 mM, 17.0 h) is on record?
Answer: 31%

Question: And the “Ent. B Max Activity” value [1]?
Answer: ++ (++ is 30-60%)

Question: What about the EC50 ([1]; read-out: Ent. B EC50) of the same compound?
Answer: 1000 to 3000 nM

Question: With `Cc1cccc(C)c1-c1nc2nc(c1Br)O[C@H](C)CNC(=O)c1cccc(c1)S(=O)(=O)N2` as the compound, how does the ring closure, isolated yield (from Cc1cccc(C)c1-c1nc(NS(=O)(=O)c2cccc(C(=O)O)c2)nc(O[C@H](C)CN)c1Br, amide bond, 13-membered ring, HATU/HOBt/DIEA, DMF, 31.1 mM, 0.42 h) read?
Answer: 54%

Question: With `C[C@@H]1CC=CCC[C@](OCc2ccccc2)(C(F)(F)F)C2=NN=C(O2)c2nc(c(C(F)(F)F)cc2N(C(=O)OC(C)(C)C)C(=O)OC(C)(C)C)O1` (mixture of isomers) as the compound, how does the ring closure, isolated yield (from C=CCC[C@@](OCc1ccccc1)(c1nnc(-c2nc(O[C@H](C)CC=C)c(C(F)(F)F)cc2N(C(=O)OC(C)(C)C)C(=O)OC(C)(C)C)o1)C(F)(F)F, rcm bond, 14-membered ring, Grubbs 1st generation, DCE, 8.92 mM, 75.0 °C, 5.25 h) read?
Answer: 53%

Question: For `Cc1cccc(C)c1-c1nc2nc(c1Br)OC[C@@H](CC(C)C)N(C1CC3(CC3)C1)C(=O)c1cccc(c1)S(=O)(=O)N2`, which ring closure, isolated yield (from Cc1cccc(C)c1-c1nc(NS(=O)(=O)c2cccc(C(=O)O)c2)nc(OC[C@@H](CC(C)C)NC2CC3(CC3)C2)c1Br, amide bond, 13-membered ring, HATU/DIEA, NMP, 105.0 mM, 24.0 h) is on record?
Answer: 53%

Question: Which ring closure, isolated yield (from Cc1cccc(C)c1-c1nc(NS(=O)(=O)c2cccc(C(=O)O)c2)nc(OC[C@@H](CC(C)C)NC2CC3(CC(NC(=O)OC(C)(C)C)C3)C2)c1C, amide bond, 13-membered ring, HATU/DIEA, DMF, 14.1 mM, 3.0 h, 2 steps) does the source give for `Cc1cccc(C)c1-c1nc2nc(c1C)OC[C@@H](CC(C)C)N(C1CC3(CC(NC(=O)OC(C)(C)C)C3)C1)C(=O)c1cccc(c1)S(=O)(=O)N2` (some centres unmarked) here?
Answer: 45%

Question: With `CC(C)(C)c1c(Cl)nc2nc1OC1CN(Cc3ccccc31)C(=O)c1cccc(c1)S(=O)(=O)N2` (centres unmarked) as the compound, how does the ring closure, isolated yield (from CC(C)(C)c1c(Cl)nc(NS(=O)(=O)c2cccc(C(=O)N3Cc4ccccc4C(O)C3)c2)nc1Cl, snar bond, 13-membered ring, NaH, NMP, 8.0 mM, 70.0 °C, 2.0 h) read?
Answer: 39%
